{"source": "patent US20060270618A1", "about": "“Novel pharmaceutical composition of interferon gamma or pirfenidone with molecular diagnostics for the improved treatment of interstitial lung diseases” (priority 2001, published 2006)", "key": {"[1]": {"tested_on": "patients suffering from severe interstitial lung disease (ILD)", "assay": "Therapy of ILD/IPF patients: gene expression analysis followed by interferon gamma", "type": "in vivo, human", "excerpt": "Biopsies were taken from patients suffering from severe interstitial lung disease (ILD), after […] was given, using the surgical method of bronchoscopy. Obtained tissue probes were stored and processed for isolation of total RNA in RNAlater™ (patent pending), an aqueous, non-toxic tissue storage reagent that stabilizes and protects cellular RNA in intact, unfrozen tissue samples.\nAnalysis of Infectious agents in biopsies. As patients with ILD repeatedly suffer from inflammations, biopsied material was tested for the presence of infectious agents. Most dominant was the observation of underlying Herpes virus infections (treated with Ganciclovir) and various bacterial infections (treated with various antibiotics), or few fungal infections.\nTherapy. Therapy with interferon gamma was only started after successful pretreatment of the underlying infections and the assessment of the gene expression of the endogenous disease signiture genes."}, "[2]": {"tested_on": "patient with histologically proven UIP", "assay": "Single patient with histologically proven UIP, CMV pretreatment then interferon gamma (FIG. 1)", "type": "in vivo, human", "conditions": "failure of immunosuppressive treatment, gene transcription analysis", "excerpt": "FIG. 1: FIG. 1 depicts the total lung capacity (TLC), the partial pressure of arterial oxygen (PaO2), and the forced vital capacity (FVC) of a patient with histologically proven UIP (open lung biopsy) and failure of immunosuppressive treatment treated with interferon gamma. FIG. 1b) depicts the total lung capacity (TLC), the partial pressure of arterial oxygen (PaO2), and the forced vital capacity (FVC) of the same patient with histologically proven UIP (open lung biopsy) and failure of immunosuppressive treatment between time #l and time #2."}, "[3]": {"tested_on": "bleomycin-induced lung collagen fibrosis", "conditions": "bleomycin mice; cited from earlier work"}, "[4]": {"tested_on": "TGF-β1", "conditions": "after six months of therapy; cited from earlier work"}, "[5]": {"tested_on": "CTGF", "conditions": "after six months of therapy; cited from earlier work"}, "[6]": {"tested_on": "individuals suffering from IPF", "conditions": "cited from earlier work"}, "[7]": {"conditions": "after pretreatment of infections and gene expression analysis"}}, "data": [{"substance": "interferon gamma [naturally occurring glycoprotein cytokine, molecular weight about 17.000, also produced by recombinant techniques]", "values": [{"measurement": "physical exertion capacity", "setting": "[1]; [7]", "value": "substantial increase"}, {"measurement": "total lung capacity", "setting": "[1]; [7]", "value": "statistically highly significant increase"}, {"measurement": "partial pressure of arterial oxygen", "setting": "[1]; at rest", "value": "statistically significant increased"}, {"measurement": "effectiveness in the combination therapy", "setting": "[1]; dose of 1.0-5.0 μg/kg body weight, 1-5 times per week, parenteral", "value": "effective"}, {"measurement": "disease symptoms", "setting": "[1]; human, in vivo", "value": "strong decrease"}, {"measurement": "survival benefit", "setting": "[1]; patients with IPF", "value": "significant survival benefit"}, {"measurement": "clinical outcome of the patient", "setting": "[2]", "value": "stabilization of the patient"}, {"measurement": "amount of fibrosis", "setting": "[3]", "value": "reduction in the amount of fibrosis"}, {"measurement": "expression of TGF-β1", "setting": "[3]", "value": "reduced expression"}, {"measurement": "transcription of TGF-β1", "setting": "[4]", "value": "significantly diminished"}, {"measurement": "transcription of CTGF", "setting": "[5]", "value": "significantly diminished"}, {"measurement": "lung function", "setting": "[6]", "value": "improvement of lung function"}]}]}
